This is an account of results in US9187472B2 (AbbVie Inc., priority 2012, dated 2015).

The subject of one experiment is PC3 cells. The experiment can be described thus: NAMPT Cell Proliferation Assay. The experiment is classed as cell-based. The note with it: Homo sapiens, PC-3, 120 h, 5 days incubation, cell viability by Cell Titer Glo. The method, boiled down:
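Cell Titer Glo viability after 5-day exposure (37° C, 5% CO2); PC3, 500 cells/well, RPMI + 10% heat-inactivated FBS, overnight attachment before dosing. Dose range 10 μM to 1×10^−5 μM, 10-fold steps. IC50 = sigmoidal fit of % inhibition.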

For a further experiment, the target named is NAMPT (Homo sapiens, UniProt P43490). The experiment can be described thus: TR-FRET Binding Assay of NAMPT with PRPP. The note with it: with 200 μM PRPP and 2.5 mM ATP; 2 nM NAMPT, 2 nM probe, 16 hours equilibration. The procedure, abridged:
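Compounds were mixed with 2 nM His-tagged NAMPT, 2 nM probe, 1 nM terbium anti-His antibody, 200 μM PRPP and 2.5 mM ATP in assay buffer with 2% DMSO, then left 16 hours to permit possible enzymatic processing of compounds before time-resolved FRET was measured.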

The target of experiment [1] is NAMPT (human, recombinant, C-terminally His-tagged) (Homo sapiens, UniProt P43490). In words: Time-Resolved Fluorescence Resonance Energy Transfer (TR-FRET) Binding Assay of NAMPT. The note with it: without substrates; 6.8 nM NAMPT, 200 nM probe, 3 hours equilibration. The method, boiled down: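 Compounds, diluted in half-log steps, are mixed with enzyme (6.8 nM), fluorescent probe (200 nM) and Tb-anti-His antibody (1 nM) in pH 7.5 HEPES buffer containing 10 mM MgCl2 and 1 mM DTT. Plates equilibrate 3 h at room temperature; normalized FRET ratios are fitted by four-parameter logistic regression for IC50.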
Chain of NAMPT (human, recombinant, C-terminally His-tagged) (P43490 whole entry): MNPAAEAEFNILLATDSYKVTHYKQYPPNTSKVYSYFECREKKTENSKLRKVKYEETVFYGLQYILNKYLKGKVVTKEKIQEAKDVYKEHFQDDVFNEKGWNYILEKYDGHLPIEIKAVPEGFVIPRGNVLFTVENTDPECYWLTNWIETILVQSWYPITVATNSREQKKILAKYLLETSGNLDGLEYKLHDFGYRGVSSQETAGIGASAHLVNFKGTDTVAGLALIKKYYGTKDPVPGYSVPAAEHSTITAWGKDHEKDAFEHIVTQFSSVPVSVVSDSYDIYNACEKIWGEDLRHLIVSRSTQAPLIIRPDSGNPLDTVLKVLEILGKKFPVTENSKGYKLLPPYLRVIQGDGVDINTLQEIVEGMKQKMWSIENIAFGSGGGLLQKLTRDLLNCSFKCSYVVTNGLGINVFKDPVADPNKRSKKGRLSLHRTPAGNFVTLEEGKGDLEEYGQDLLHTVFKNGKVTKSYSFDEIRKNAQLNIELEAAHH

Chain of NAMPT (P43490 whole entry): as above

With `CC(C)Cn1cc(-c2ccc(NC(=O)NCc3ccc4nccn4c3)cc2)cn1` [Example 362, 1-(imidazo[1,2-a]pyridin-6-ylmethyl)-3-{4-[1-(2-methylpropyl)-1H-pyrazol-4-yl]phenyl}urea], the IC50 in the experiment with PC3 cells turned out to be 106 nM; at NAMPT, 0.256 nM; in experiment [1], 143 nM.

As for `CC1(Cn2cc(-c3ccc(C(=O)NCc4ccn5ccnc5c4)s3)cn2)CCCCO1` (stereo not drawn) [Example 465, N-(imidazo[1,2-a]pyridin-7-ylmethyl)-5-{1-[(2-methyltetrahydro-2H-pyran-2-yl)methyl]-1H-pyrazol-4-yl}thiophene-2-carboxamide], the IC50 was found to be 0.319 nM in the experiment with PC3 cells, 0.169 nM at NAMPT and 13.8 nM in experiment [1].

Consider `O=C(NCc1ccn2ccnc2c1)c1ccc(-c2cnn(CC3COCCO3)c2)s1` (stereo not drawn) [Example 316, 5-[1-(1,4-dioxan-2-ylmethyl)-1H-pyrazol-4-yl]-N-(imidazo[1,2-a]pyridin-7-ylmethyl)thiophene-2-carboxamide], for which the figures for the IC50 (in the experiment on PC3 cells; at NAMPT; in experiment [1]) were 6.34 nM, 0.169 nM and 42.1 nM, respectively.

Turning to `Cc1ccccc1C(=O)N1CCC(c2ccc(C(=O)NCc3ccn4ccnc4c3)s2)C1` (stereo not drawn) [Example 794, N-(imidazo[1,2-a]pyridin-7-ylmethyl)-5-[1-(2-methylbenzoyl)pyrrolidin-3-yl]thiophene-2-carboxamide], the half-inhibitory concentration (IC50) in the experiment on PC3 cells is 0.883 nM; on NAMPT, 0.465 nM; in experiment [1], 29 nM.

`O=C(NCc1ccc2nccn2c1)c1ccc(OC2CCN(C(=O)CC3CCOCC3)CC2)cc1` [Example 171, N-(imidazo[1,2-a]pyridin-6-ylmethyl)-4-{[1-(tetrahydro-2H-pyran-4-ylacetyl)piperidin-4-yl]oxy}benzamide]: the values for the concentration for half-maximal inhibition (IC50) (in the experiment on PC3 cells; on NAMPT; in experiment [1]) were 44.7 nM, 2.51 nM and 2170 nM, respectively.

On to `O=C(NCc1ccn2ccnc2c1)c1ccc(O[C@H]2CCN(C(=O)[C@@H]3CCCO3)C2)cc1` [Example 341, N-(imidazo[1,2-a]pyridin-7-ylmethyl)-4-({(3S)-1-[(2S)-tetrahydrofuran-2-ylcarbonyl]pyrrolidin-3-yl}oxy)benzamide], for which the figures for the IC50 (with PC3 cells; on NAMPT; in experiment [1]) were 8300 nM, 0.719 nM and > 10000 nM, respectively.

For the molecule `O=C(NCc1ccn2ccnc2c1)c1ccc(C2CN(C(=O)c3ccoc3)C2)cc1` [Example 662, 4-[1-(furan-3-ylcarbonyl)azetidin-3-yl]-N-(imidazo[1,2-a]pyridin-7-ylmethyl)benzamide], the half-inhibitory concentration (IC50) was determined as 93.4 nM with PC3 cells, 0.671 nM at NAMPT and 318 nM in experiment [1].

For `CC(C)CCNC(=O)c1ccc(NC(=O)Nc2ccc3nccn3c2)cc1` [Example 1, 4-[(imidazo[1,2-a]pyridin-6-ylcarbamoyl)amino]-N-(3-methylbutyl)benzamide], the concentration for half-maximal inhibition (IC50) was 60.9 nM with PC3 cells, 0.72 nM on NAMPT and 92.1 nM in experiment [1].

In the case of `O=C(Nc1ccc(C(=O)NCC2CCCCO2)cc1)Nc1ccc2nccn2c1` (stereo not drawn) [Example 23], the figures for the 50% inhibitory concentration (IC50) (with PC3 cells; at NAMPT; in experiment [1]) were 41.5 nM, 0.409 nM and 281 nM, respectively.

Turning to `O=C(NCc1ccn2ccnc2c1)c1ccc(C2CN(C(=O)c3ccc(F)cc3)C2)cc1` [Example 649, 4-[1-(4-fluorobenzoyl)azetidin-3-yl]-N-(imidazo[1,2-a]pyridin-7-ylmethyl)benzamide], the IC50 came to 70.6 nM in the experiment on PC3 cells, 0.749 nM on NAMPT and 203 nM in experiment [1].

On to `Cn1cccc1CCC(=O)N(CC1CCCO1)c1ncc(C(=O)NCc2ccc3nccn3c2)s1` (stereo not drawn) [Example 189, N-(imidazo[1,2-a]pyridin-6-ylmethyl)-2-{[3-(1-methyl-1H-pyrrol-2-yl)propanoyl](tetrahydrofuran-2-ylmethyl)amino}-1,3-thiazole-5-carboxamide], for which the half-inhibitory concentration (IC50) with PC3 cells turned out to be 29.3 nM; at NAMPT it was 11.1 nM; in experiment [1] it was 192 nM.

Consider `CC(C)(C)OC(=O)N1CCC(c2ccc(C(=O)NCc3ccn4ncnc4c3)cc2)CC1` [Example 563, tert-butyl 4-{4-[([1,2,4]triazolo[1,5-a]pyridin-7-ylmethyl)carbamoyl]phenyl}piperidine-1-carboxylate], for which the IC50 was found to be 5140 nM with PC3 cells, 4.19 nM on NAMPT and 322 nM in experiment [1].

Take `CC(C)OC[C@@H]1CN(c2ncc(C(=O)NCc3ccn4ccnc4c3)s2)C(=O)O1` [Example 255, N-(imidazo[1,2-a]pyridin-7-ylmethyl)-2-{(5S)-2-oxo-5-[(propan-2-yloxy)methyl]-1,3-oxazolidin-3-yl}-1,3-thiazole-5-carboxamide]: the IC50 in the experiment on PC3 cells is 4290 nM; on NAMPT, 2.22 nM; in experiment [1], 8190 nM.

As for `O=C(NCc1ccn2ccnc2c1)c1ccc(C2=CCN(C(=O)CC3CC3)CC2)o1` [Example 750, 5-[1-(cyclopropylacetyl)-1,2,3,6-tetrahydropyridin-4-yl]-N-(imidazo[1,2-a]pyridin-7-ylmethyl)furan-2-carboxamide], the IC50 is 794 nM in the experiment with PC3 cells, 1.54 nM at NAMPT and 1530 nM in experiment [1].

In the case of `Cc1noc(C)c1C(=O)N1CCC(c2ccc(C(=O)NCc3ccn4ccnc4c3)s2)C1` (stereo not drawn) [Example 797, 5-{1-[(3,5-dimethyl-1,2-oxazol-4-yl)carbonyl]pyrrolidin-3-yl}-N-(imidazo[1,2-a]pyridin-7-ylmethyl)thiophene-2-carboxamide], the IC50 in the experiment with PC3 cells was 6.98 nM; on NAMPT it was 0.671 nM; in experiment [1] it was 97.2 nM.

As for `O=C(NCc1ccc2nccn2c1)c1cnc(N(C[C@H]2CCCO2)C(=O)C2CCOC2)s1` (stereo partly drawn) [Example 146, N-(imidazo[1,2-a]pyridin-6-ylmethyl)-2-{(tetrahydrofuran-3-ylcarbonyl)[(2R)-tetrahydrofuran-2-ylmethyl]amino}-1,3-thiazole-5-carboxamide], the half-inhibitory concentration (IC50) was 7.69 nM with PC3 cells, 0.403 nM on NAMPT and 261 nM in experiment [1].

As to `COCCNC(=O)N(C[C@@H]1CCCO1)c1ncc(C(=O)NCc2ccc3nccn3c2)s1` [Example 155, N-(imidazo[1,2-a]pyridin-6-ylmethyl)-2-{[(2-methoxyethyl)carbamoyl][(2S)-tetrahydrofuran-2-ylmethyl]amino}-1,3-thiazole-5-carboxamide], the 50% inhibitory concentration (IC50) in the experiment with PC3 cells was 17.6 nM; at NAMPT, 2.3 nM; in experiment [1] it was 3370 nM.

For the molecule `O=C(NCc1ccn2ccnc2c1)c1ccc(-c2ccc(N3CCOCC3)nc2)s1` [Example 464, N-(imidazo[1,2-a]pyridin-7-ylmethyl)-5-[6-(morpholin-4-yl)pyridin-3-yl]thiophene-2-carboxamide], the figures for the concentration for half-maximal inhibition (IC50) (in the experiment with PC3 cells; at NAMPT; in experiment [1]) were 6.79 nM, 0.169 nM and 63.4 nM, respectively.

Take `O=C(CC1CCOCC1)Nc1ccc(NC(=O)NCc2ccc3nccn3c2)cc1` [Example 278, N-(4-{[(imidazo[1,2-a]pyridin-6-ylmethyl)carbamoyl]amino}phenyl)-2-(tetrahydro-2H-pyran-4-yl)acetamide]: the figures for the IC50 (with PC3 cells; on NAMPT; in experiment [1]) were 51.7 nM, 0.621 nM and 102 nM, respectively.

Turning to `O=C(NCc1ccn2ccnc2c1)c1ccc(C2CCN(C(=O)c3ccccc3F)C2)s1` (stereo not drawn) [Example 776, 5-[1-(2-fluorobenzoyl)pyrrolidin-3-yl]-N-(imidazo[1,2-a]pyridin-7-ylmethyl)thiophene-2-carboxamide], the half-maximal inhibitory concentration (IC50) was 2.1 nM in the experiment on PC3 cells, 0.169 nM on NAMPT and 21.5 nM in experiment [1].

Turning to `CC(C)(C)OC(=O)Nc1ccc(C(=O)NCc2ccn3ccnc3c2)cc1` [Example 207, tert-butyl {4-[(imidazo[1,2-a]pyridin-7-ylmethyl)carbamoyl]phenyl}carbamate], the values for the half-maximal inhibitory concentration (IC50) (in the experiment with PC3 cells; at NAMPT; in experiment [1]) were 739 nM, 0.282 nM and 1510 nM, respectively.

With `O=C(CC1CCOC1)Nc1ccc(C(=O)NCc2ccn3ccnc3c2)cc1` (stereo not drawn) [Example 214, N-(imidazo[1,2-a]pyridin-7-ylmethyl)-4-[(tetrahydrofuran-3-ylacetyl)amino]benzamide], the results for the IC50 (in the experiment with PC3 cells; at NAMPT; in experiment [1]) were 289 nM, 1.28 nM and 641 nM, respectively.

Turning to `CC(C)CC(=O)N1CC(c2ccc(C(=O)NCc3ccn4ccnc4c3)cc2)C1` [Example 651, N-(imidazo[1,2-a]pyridin-7-ylmethyl)-4-[1-(3-methylbutanoyl)azetidin-3-yl]benzamide], the IC50 with PC3 cells came to 64.8 nM; on NAMPT, 0.715 nM; in experiment [1] it was 276 nM.

For the molecule `CC(C)C(C)C(=O)N1CCC(c2ccc(C(=O)NCc3ccn4ccnc4c3)cc2)C1` (stereo not drawn) [Example 615, 4-[1-(2,3-dimethylbutanoyl)pyrrolidin-3-yl]-N-(imidazo[1,2-a]pyridin-7-ylmethyl)benzamide], the IC50 in the experiment on PC3 cells was 18.8 nM; at NAMPT it was 0.79 nM; in experiment [1], 544 nM.

`O=C(NCc1ccn2ccnc2c1)c1ccc(C2CN(C(=O)CC3CCCCC3)C2)cc1` [Example 657, 4-[1-(cyclohexylacetyl)azetidin-3-yl]-N-(imidazo[1,2-a]pyridin-7-ylmethyl)benzamide]: the results for the IC50 (with PC3 cells; on NAMPT; in experiment [1]) were 36 nM, 0.589 nM and 232 nM, respectively.
